# Reference: US20250152550A1, “LYMPH-TARGETING FORMULATIONS” (Monash University, priority 2021, published 2025)
# Key:
# [1] = Lymph and plasma pharmacokinetics of orlistat in acute pancreatitis rats; assay type: in vivo, rat; settings: AP rats relative to healthy animals
# Source text: FIG. 4 illustrates lymph and plasma pharmacokinetics of orlistat in lymph diverted or lymph intact sham or acute pancreatitis (AP) rats intestinally administered a blank long chain fatty acid (LC-FA), orlistat LC-FA (LC-FA+O), or orlistat lipid free formulation (LFF+O). Dose-normalised lymph concentration of total orlistat (open and closed ring forms) over time (Panel A), cumulative lymphatic transport of total orlistat (open and closed ring forms) over time (Panel B), gut-lymph concentrations of triglyceride (TG) (Panel C), cumulative TG mass transport in gut-lymph (Panel D), dose-normalised plasma concentrations of total orlistat (open and closed ring forms) (Panel E), and lymph to plasma concentration ratios of orlistat (Panel F) over time. […]
# In the previous study it was determined in healthy rats that orlistat administration in a long chain fatty acid (LC-FA) formulation promotes lymphatic drug transport when compared to administration in a lipid free formulation (LFF). […] Blood pressure and heart rate were also determined. […]
# After initiation of dosing of the formulations, lymph was collected continuously for the duration of the experiment (i.e. up to 4 h post initiation of formulation dosing) into pre-weighed 1.5 ml tubes that were kept in an ice bath. Lymph collection tubes were changed every hour and lymph flow was determined gravimetrically. […]
# [2] = assay type: in vivo; settings: intestinal and IV groups; below the limit of quantitation
# Procedure: Systemic availability was determined in lymph-intact anaesthetised rats with cannulas inserted into the carotid artery and duodenum for blood collection and formulation infusion, respectively. To enable the calculation of absolute bioavailability an additional group was administered orlistat intravenously via a jugular vein cannula, and blood samples collected from a carotid artery cannula over time.
# To enable determination of systemic availability following intestinal dosing of selected formulations (i.e. the 40 mg oleic acid and olive oil formulations containing 8 mg/kg orlistat) a separate group of lymph-intact animals (i.e. non-lymph cannulated) were cannulated at the duodenum and carotid artery to enable formulation administration and blood collection, respectively. After surgery the rats were hydrated via intraduodenal infusion of 2.8 ml/h normal saline for at least 30 min, followed by intraduodenal infusion of the formulations at 2.8 ml/h for 2 h. […]
# For the plasma pharmacokinetic studies, the absolute bioavailability following intestinal delivery of orlistat was calculated from:
# Where AUC0-8h intestinally administered and IV administered are the area under the plasma concentration time curves from time 0 to 8 h after intestinal and IV administration, respectively. Plasma AUCs were calculated using the linear trapezoidal method.
# [3] = cited from earlier work
# [4] = healthy volunteers, oral, standard capsule formulations
compound,measurement,setting,value
CCCCCCCCCCC[C@@H](C[C@@H]1OC(=O)[C@H]1CCCCCC)OC(=O)[C@H](CC(C)C)NC=O [orlistat],Gut-lymph uptake of orlistat in animals with AP,[1],attenuated relative to healthy animals
same,Plasma concentration of closed ring form of orlistat,[2],< 50 ng/mL
same,Dose recovered in the faeces,[3]; [4],more than 97%
same,Dose recovered in the faeces in a non-metabolised form,[3]; [4],83.1%
same,Absorption and bioavailability of orlistat,"[3]; oral administration in standard formulations, fed or fasted state",< 1 % dose
